Results reported in patent US20220340633A1 (Adepthera LLC, priority 2016, published 2022).
Entries after “also recorded” stand apart in the source; their conditions may differ. Positions of bridges follow the written chain, without caps; N, C: chain ends. Non-standard residues stand in square brackets, D forms with d. Residues, ends and D or L forms follow the SMILES beside them. *: point of attachment. Palmitoyl = CCCCCCCCCCCCCCCC(=O)*; AEEA = NCCOCCOCC(=O)O

Columns and labels:
[1] = molecular target: T1, CLR/RAMP2 receptor (Homo sapiens, UniProt O60895+Q16602); assay: CLR/RAMP2 arrestin receptor activation assay (agonist); format: cell-based; settings: for Emax: CHO-K1, read-out: CLR/RAMP 2 Max Activity % of positive control, CHO-K1 cells, % of positive control (ADM)
T1 construct: host or cells: CHO-K1 cells
T1 sequence (Q16602 23-461): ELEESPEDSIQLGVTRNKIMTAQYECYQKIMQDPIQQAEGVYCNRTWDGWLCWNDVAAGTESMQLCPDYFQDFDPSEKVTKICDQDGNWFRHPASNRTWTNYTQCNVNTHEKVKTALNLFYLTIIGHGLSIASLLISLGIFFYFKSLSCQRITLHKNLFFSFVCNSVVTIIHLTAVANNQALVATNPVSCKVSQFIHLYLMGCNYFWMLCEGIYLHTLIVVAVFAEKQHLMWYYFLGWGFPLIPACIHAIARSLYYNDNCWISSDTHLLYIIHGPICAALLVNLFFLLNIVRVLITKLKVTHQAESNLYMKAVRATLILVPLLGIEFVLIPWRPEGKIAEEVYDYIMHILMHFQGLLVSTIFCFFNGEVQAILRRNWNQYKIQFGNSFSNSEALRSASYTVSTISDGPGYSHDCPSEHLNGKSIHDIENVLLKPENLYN
T1 sequence (O60895 43-175): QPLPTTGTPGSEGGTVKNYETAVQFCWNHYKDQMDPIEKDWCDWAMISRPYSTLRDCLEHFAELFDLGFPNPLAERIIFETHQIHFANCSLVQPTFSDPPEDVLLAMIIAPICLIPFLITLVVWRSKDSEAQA
Procedure: (§1) Using a receptor activation assay, the dose-dependent stimulatory response of peptide agonists of the present invention on a CLR/RAMP1 receptor, a CLR/RAMP2, or a CLR/RAMP3 receptor complex was determined. A cell line carrying the recombinant CLR/RAMP1, CLR/RAMP2, or a CLR/RAMP3 receptor was employed in the assay. Peptide agonist activities were tested, in duplicate, at 10 different concentrations, starting with 1.0 μM and serially diluted 3-fold, in DMSO. […] The CLR/RAMP1 cAMP, CLR/RAMP2 arrestin assays, and CLR/RAMP3 cAMP (DiscoveRx, Fremont, Calif.) were used.

[2] = molecular target: T2, CLR/RAMP1 receptor (Homo sapiens, UniProt O60894+Q16602); assay: CLR/RAMP1 cAMP receptor activation assay (agonist); format: cell-based; design: host or cells: 1321N1 cells; settings: for Emax: 1321-N1, read-out: CLR/RAMP 1 Max Activity % of positive control, 1321N1 cells, % of positive control (β-CGRP)
T2 sequence (Q16602 23-461): as the sequence (Q16602 23-461) above
T2 sequence (O60894 27-148): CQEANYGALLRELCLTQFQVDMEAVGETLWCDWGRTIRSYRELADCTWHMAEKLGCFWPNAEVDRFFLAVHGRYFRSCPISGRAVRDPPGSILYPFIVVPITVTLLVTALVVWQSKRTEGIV
Procedure: as §1

[3] = molecular target: T3, CLR/RAMP3 receptor (Homo sapiens, UniProt O60896+Q16602); assay: CLR/RAMP3 cAMP receptor activation assay (agonist); format: cell-based; design: host or cells: CHO-K1 cells; settings: CHO-K1, read-out: CLR/RAMP 3 Max Activity % of positive control
T3 sequence (Q16602 23-461): as the sequence (Q16602 23-461) above
T3 sequence (O60896 24-148): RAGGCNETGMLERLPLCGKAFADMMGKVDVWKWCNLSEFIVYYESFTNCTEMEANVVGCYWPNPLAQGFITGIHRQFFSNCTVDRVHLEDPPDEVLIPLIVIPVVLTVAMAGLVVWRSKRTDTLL
Procedure: as §1

[4] = test system: primary human lymphatic endothelia cells (HLEC); assay: HLEC survival in medium with 0.1% FBS, MTS assay; settings: 30, 100, and 300 nM, 72 hrs
Procedure: (§2) The cells were cultured for 72 hrs, and cell viability was assayed with the MTS assay (Promega).

[5] = test system: primary human lymphatic endothelia cells (HLEC); assay: HLEC proliferation in medium with 2% FBS, MTS assay; settings: 30, 100, and 300 nM, 72 hrs
Procedure: as §2

[6] = molecular target: T3, CLR/RAMP3 receptor; assay: cell-based
Procedure: as §1
(§3) For the analysis of antagonistic activity, the synthetic analogs were pre-incubated with the cells before adding the reference ligand at its EC80.

[7] = molecular target: T2, CLR/RAMP1 receptor; settings: CLR/RAMP1 versus CLR/RAMP2
Procedure: as §1, §3

| Structure (SMILES) | Emax [1] | Emax [2] | Emax [3] | HLEC survival (in words) [4] | HLEC proliferation (in words) [5] | IC50 [6] | receptor specificity of antagonist [7] | further results |
| --- | --- | --- | --- | --- | --- | --- | --- | --- |
| CCCCCCCCCCCCCCCC(=O)NCCCC[C@H](NC(=O)COCCOCCN)C(=O)NCC(=O)N[C@H]1CSSC[C@@H](C(=O)N[C@H](C(=O)N[C@H](C(=O)N[C@@H](CCC(N)=O)C(=O)N[C@@H](CCCCN)C(=O)N[C@@H](CC(C)C)C(=O)N[C@@H](C)C(=O)N[C@@H](Cc2c[nH]cn2)C(=O)N[C@@H](CCC(N)=O)C(=O)N[C@H](C(=O)N[C@@H](Cc2ccc(O)cc2)C(=O)N[C@@H](CCC(N)=O)C(=O)N[C@@H](Cc2ccccc2)C(=O)N[C@H](C(=O)N[C@@H](CC(=O)O)C(=O)N[C@@H](CCCCN)C(=O)N[C@@H](CC(=O)O)C(=O)N[C@@H](CO)C(=O)N[C@@H](C)C(=O)N2CCC[C@H]2C(=O)N[C@H](C(=O)N[C@@H](CC(=O)O)C(=O)N2CCC[C@H]2C(=O)N[C@@H](CO)C(=O)N[C@@H](CO)C(=O)N2CCC[C@H]2C(=O)N[C@@H](Cc2c[nH]cn2)C(=O)N[C@@H](CO)C(=O)N[C@@H](Cc2ccc(O)cc2)C(N)=O)C(C)C)[C@@H](C)O)[C@@H](C)CC)C(C)C)[C@@H](C)O)NC(=O)[C@H]([C@@H](C)O)NC(=O)CNC(=O)[C@H](Cc2ccccc2)NC(=O)[C@H](CCCNC(=N)N)NC1=O [SEQ ID NO: 48] (H-[AEEA]K(Palmitoyl)GCRFGTCTVQKLAHQIYQFTDKDSAPVDPSSPHSY-NH2; disulfide 4-9) | 77% | 78% | 141% |  |  |  |  | EC50 ([1]; CHO-K1 cells stably expressing CLR/RAMP2, arrestin, positive control ADM, read-out: CLR/RAMP 2 EC50): 0.2 nM; EC50 ([2]; 1321N1 cells stably expressing CLR/RAMP1, cAMP, positive control β-CGRP, read-out: CLR/RAMP 1 EC50): 0.3 nM |
| CC[C@H](C)[C@H](NC(=O)[C@H](CCC(N)=O)NC(=O)[C@H](Cc1c[nH]cn1)NC(=O)[C@H](C)NC(=O)[C@H](CC(C)C)NC(=O)[C@H](CCCCN)NC(=O)[C@H](CCC(N)=O)NC(=O)[C@@H](NC(=O)[C@@H](NC(=O)[C@@H]1CSSC[C@H](NC(=O)CNC(=O)[C@H](Cc2ccccc2)NC(C)=O)C(=O)N[C@@H](CCCNC(=N)N)C(=O)N[C@@H](Cc2ccccc2)C(=O)NCC(=O)N[C@@H]([C@@H](C)O)C(=O)N1)[C@@H](C)O)C(C)C)C(=O)N[C@@H](Cc1ccc(O)cc1)C(=O)N[C@@H](CCC(N)=O)C(=O)N[C@@H](Cc1ccccc1)C(=O)N[C@H](C(=O)N[C@@H](CC(=O)O)C(=O)N[C@@H](CCCCN)C(=O)N[C@@H](CC(=O)O)C(=O)N[C@@H](CCCCN)C(=O)N[C@@H](CC(=O)O)C(=O)N[C@@H](CC(N)=O)C(=O)N[C@H](C(=O)N[C@@H](C)C(=O)N1CCC[C@H]1C(=O)N[C@@H](CCCNC(=N)N)C(=O)N[C@@H](CO)C(=O)N[C@@H](CCCCN)C(=O)N[C@H](C(=O)N[C@@H](CO)C(=O)N1CCC[C@H]1C(=O)N[C@@H](CCC(N)=O)C(=O)NCC(=O)N[C@@H](Cc1ccc(O)cc1)C(N)=O)[C@@H](C)CC)C(C)C)[C@@H](C)O [SEQ ID NO: 53, reference compound] | 102% | 69% |  | minimal effects; also recorded: negligible effects | minimal effects; also recorded: negligible effects |  |  |  |
| CC[C@H](C)[C@H](NC(=O)[C@H](CCC(N)=O)NC(=O)[C@H](Cc1c[nH]cn1)NC(=O)[C@H](C)NC(=O)[C@H](CC(C)C)NC(=O)[C@H](CCCCN)NC(=O)[C@H](CCC(N)=O)NC(=O)[C@@H](NC(=O)[C@@H](NC(=O)[C@@H]1CSSC[C@H](NC(=O)CNC(=O)[C@H](Cc2ccccc2)NC(=O)[C@H](CO)NC(=O)[C@H](CCCNC(=N)N)NC(=O)[C@H](CC(C)C)NC(=O)CNC(=O)[C@H](CCC(N)=O)NC(=O)[C@H](Cc2ccccc2)NC(=O)[C@H](CC(N)=O)NC(=O)[C@H](CC(N)=O)NC(=O)[C@H](CCSC)NC(=O)[C@H](CO)NC(=O)[C@H](CCC(N)=O)NC(=O)[C@H](CCCNC(=N)N)NC(=O)[C@H](Cc2ccc(O)cc2)NC(C)=O)C(=O)N[C@@H](CCCNC(=N)N)C(=O)N[C@@H](Cc2ccccc2)C(=O)NCC(=O)N[C@@H]([C@@H](C)O)C(=O)N1)[C@@H](C)O)C(C)C)C(=O)N[C@@H](Cc1ccc(O)cc1)C(=O)N[C@@H](CCC(N)=O)C(=O)N[C@@H](Cc1ccccc1)C(=O)N[C@H](C(=O)N[C@@H](CC(=O)O)C(=O)N[C@@H](CCCCN)C(=O)N[C@@H](CC(=O)O)C(=O)N[C@@H](CCCCN)C(=O)N[C@@H](CC(=O)O)C(=O)N[C@@H](CC(N)=O)C(=O)N[C@H](C(=O)N[C@@H](C)C(=O)N1CCC[C@H]1C(=O)N[C@@H](CCCNC(=N)N)C(=O)N[C@@H](CO)C(=O)N[C@@H](CCCCN)C(=O)N[C@H](C(=O)N[C@@H](CO)C(=O)N1CCC[C@H]1C(=O)N[C@@H](CCC(N)=O)C(=O)NCC(=O)N[C@@H](Cc1ccc(O)cc1)C(N)=O)[C@@H](C)CC)C(C)C)[C@@H](C)O [SEQ ID NO: 54, reference compound] |  |  |  | minimal effects; also recorded: negligible effects | minimal effects; also recorded: negligible effects |  |  |  |
| CCCCCCCCCCCCCCCC(=O)NCCCC[C@H](NC(=O)COCCOCCN)C(=O)NCC(=O)N[C@H]1CSSC[C@@H](C(=O)N[C@H](C(=O)N[C@H](C(=O)N[C@@H](CCC(N)=O)C(=O)N[C@@H](CCCCN)C(=O)N[C@@H](CC(C)C)C(=O)N[C@@H](C)C(=O)N[C@@H](Cc2c[nH]cn2)C(=O)N[C@@H](CCC(N)=O)C(=O)N[C@H](C(=O)N[C@@H](Cc2ccc(O)cc2)C(=O)N[C@@H](CCC(N)=O)C(=O)N[C@@H](Cc2ccccc2)C(=O)N[C@H](C(=O)N[C@@H](CC(=O)O)C(=O)N[C@@H](CCCCN)C(=O)N[C@@H](CC(=O)O)C(=O)N[C@H](C(=O)N[C@@H](C)C(=O)N2CCC[C@H]2C(=O)N[C@@H](CCCNC(=N)N)C(=O)N[C@@H](CO)C(=O)N[C@@H](CCCCN)C(=O)N[C@H](C(=O)N[C@@H](CO)C(=O)N2CCC[C@H]2C(=O)N[C@@H](CCC(N)=O)C(=O)NCC(=O)N[C@@H](Cc2ccc(O)cc2)C(N)=O)[C@@H](C)CC)C(C)C)[C@@H](C)O)[C@@H](C)CC)C(C)C)[C@@H](C)O)NC(=O)[C@H]([C@@H](C)O)NC(=O)CNC(=O)[C@H](Cc2ccccc2)NC(=O)[C@H](CCCNC(=N)N)NC1=O [SEQ ID NO: 101] | 74% | 56% | 129% |  |  |  |  | receptor specificity of agonist ([1]; CLR/RAMP2 versus CLR/RAMP1): CLR/RAMP2-specific |
| CCCCCCCCCCCCCCCC(=O)NCCCC[C@H](NC(=O)COCCOCCN)C(=O)N[C@H](C(=O)N[C@@H](CCC(N)=O)C(=O)N[C@@H](CCCCN)C(=O)N[C@@H](CC(C)C)C(=O)N[C@@H](C)C(=O)N[C@@H](Cc1c[nH]cn1)C(=O)N[C@@H](CCC(N)=O)C(=O)N[C@H](C(=O)N[C@@H](Cc1ccc(O)cc1)C(=O)N[C@@H](CO)C(=O)N[C@@H](C)C(=O)N1CCC[C@H]1C(=O)N[C@H](C(=O)N[C@@H](CC(=O)O)C(=O)N1CCC[C@H]1C(=O)N[C@@H](CO)C(=O)N[C@@H](CO)C(=O)N1CCC[C@H]1C(=O)N[C@@H](Cc1c[nH]cn1)C(=O)N[C@@H](CO)C(=O)N[C@@H](Cc1ccc(O)cc1)C(N)=O)C(C)C)[C@@H](C)CC)C(C)C [SEQ ID NO: 114] |  |  |  |  |  | 0.8 to 9.2 nM | CLR/RAMP1-specific |  |
| CCCCCCCCCCCCCCCC(=O)N[C@@H](CCCCN)C(=O)N[C@H](C(=O)N[C@@H](CCC(N)=O)C(=O)N[C@@H](CCCCN)C(=O)N[C@@H](CC(C)C)C(=O)N[C@@H](C)C(=O)N[C@@H](Cc1c[nH]cn1)C(=O)N[C@@H](CCC(N)=O)C(=O)N[C@H](C(=O)N[C@@H](Cc1ccc(O)cc1)C(=O)N[C@@H](CCC(N)=O)C(=O)N[C@@H](Cc1ccccc1)C(=O)N[C@H](C(=O)N[C@@H](CC(=O)O)C(=O)N[C@@H](CCCCN)C(=O)N[C@@H](CC(=O)O)C(=O)N[C@H](C(=O)N[C@@H](C)C(=O)N1CCC[C@H]1C(=O)N[C@@H](CCCNC(=N)N)C(=O)N[C@@H](CO)C(=O)N[C@@H](CCCCN)C(=O)N[C@H](C(=O)N[C@@H](CO)C(=O)N1CCC[C@H]1C(=O)N[C@@H](CCC(N)=O)C(=O)NCC(=O)N[C@@H](Cc1ccc(O)cc1)C(N)=O)[C@@H](C)CC)C(C)C)[C@@H](C)O)[C@@H](C)CC)C(C)C [SEQ ID NO: 119] |  |  |  |  |  | 0.8 to 9.2 nM | CLR/RAMP2-specific |  |
